Measured values reported in patent publication US20190367963A1, “METHOD FOR SELECTING ODOR CONTROL SUBSTANCE” (KAO CORPORATION, priority 2017, published 2019).

Tests used:
[1] = target: T1, OR2W1 (Homo sapiens, UniProt Q9Y3N9); assay: Luciferase reporter gene assay of OR2W1 expressing HEK293 cells; format: cell-based
T1 construct: expressed in transfected cells; host or cells: HEK293
T1 sequence (Q9Y3N9 1-320): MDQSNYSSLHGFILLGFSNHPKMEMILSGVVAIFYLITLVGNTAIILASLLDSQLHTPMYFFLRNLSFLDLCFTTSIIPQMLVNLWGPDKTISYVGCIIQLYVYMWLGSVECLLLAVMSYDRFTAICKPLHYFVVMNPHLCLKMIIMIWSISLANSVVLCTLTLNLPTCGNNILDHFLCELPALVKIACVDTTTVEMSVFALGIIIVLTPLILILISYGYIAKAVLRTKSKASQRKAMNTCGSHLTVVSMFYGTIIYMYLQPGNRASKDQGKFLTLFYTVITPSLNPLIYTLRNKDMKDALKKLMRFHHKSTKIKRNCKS
From the text: (§1) Based on the sequence information registered in GenEank, genes encoding 427 human olfactory receptors including variants were each cloned. Each gene was cloned by PCR using human genomic DNA female (G1521: Promega) as the template. Each gene amplified by PCR was recombined downstream of a Flag-Rho tag sequence on a pME18S vector.
(§2) A gene encoding human RTP1S was inserted into the EcoRI/XhoI site of a pME18S vector.
427 HEK293 cells differently expressing one of 427 human olfactory receptors were produced. Reaction solutions having compositions shown in Table 1 were prepared and were left to stand in a clean bench for 15 minutes. The reaction solutions were added to each well of a multi-well plate (384 or 96-well plate, BioCoat), and HEK293 cells were then seeded. In the 384-well plate, 4.4 μL of a reaction solution and 40 μL of HEK293 cells (20×10^4 cells/cm^2) were added. In the 96-well plate, 10 μL of a reaction solution and 90 μL of HEK293 cells (3×10^5 cells/cm^2) were added. The cells were cultured in an incubator maintained at 37° C. and 5% CO2 for 24 hours. As a control, cells not expressing an olfactory receptor (mock) were prepared.
The olfactory receptor expressed in HEK293 cells interact with endogenous cellular Gas to activate adenylate cyclase and thereby increases the intracellular cAMP level. The measurement of the response of cells to an odorant, test substance, or antagonist in the present invention was performed by a luciferase reporter gene assay monitoring the increase in the intracellular cAMP level as a light emission value derived from a firefly luciferase gene (fluc2P-CRE-hygro). A Renilla luciferase gene fused to downstream of a CMV promoter (hRluc-CMV) was simultaneously transfected and was used as an internal standard for calibrating the error in gene transfer efficiency or the number of cells. The luciferase activity was measured from 2.5 to 4 hours after stimulation with an odorant or a test substance with a Dual-Glo™ luciferase assay system (Promega), following user's manual thereof. The value fLuc/hRluc was calculated by dividing the light emission value derived from firefly luciferase by the light emission value derived from Renilla luciferase. “Fold increase” as an indicator of the responsiveness of an olfactory receptor to stimulation with a test substance, and “odor response” (%) as an indicator of the activity level of an antagonist to the olfactory receptor, were calculated according to the following formula: […]
X: fLuc/hRluc, induced by stimulation with a test substance alone, and
Y: fLuc/hRluc, without stimulation with a test substance.
L-Arginine and 1-histidine were used as test substances. […]

[2] = Sensory examination: odor intensity (labeled magnitude scale) on simultaneous exposure to odorant and test substance; format: in vivo, human; details: test substance 10 mM in saline, ultrasonic nebulizer, LMS; for odor intensity of HCA used together with test substance: HCA 0.1 mM; for odor intensity of PEA used together with test substance: PEA 0.1 mM
Procedure: Whether the odor of an odorant was enhanced or not by simultaneous exposure to the odorant and 1-arginine was investigated by comparing with exposure to the odorant alone. PEA or hexyl cinnamic aldehyde (HCA) was used as the odorant. The odorant was added at a final concentration of 0.1 mM to a saline aqueous solution with 1-arginine (10 mM) and a saline aqueous solution with 1-histidine (10 mM) as a control. The resulting solutions were sprayed to an examinee for inhaling using an ultrasonic nebulizer (NE-U07: OMRON Corporation, atomization particle diameter: 1 to 8 μm (80% of total volume particle diameter distribution)) with a spray amount of about 170 μL (for about 20 seconds) at most, and odor intensity was evaluated.
The odor intensity was evaluated according to the method of Green, et al, (Chemical senses, 1996, 21: 323-34) with the labeled magnitude scale (LMS) shown below. That is, assuming the full scale length was 100%, labels were set to the following positions: Barely detectable: 1.4%, Weak: 6.1%, Moderate: 17.2%, Strong: 35.4%, Very strong: 53.3%, Strongest imaginable: 100%.

[3] = system: 427 human olfactory receptors; assay: Luciferase reporter gene assay of 427 human olfactory receptors expressed in HEK293 cells; format: cell-based; details: test substance 10 mM
From the text: as §1, §2
427 HEK293 cells differently expressing one of 427 human olfactory receptors were produced. Reaction solutions having compositions shown in Table 1 were prepared and were left to stand in a clean bench for 15 minutes. The reaction solutions were added to each well of a multi-well plate (384 or 96-well plate, BioCoat), and HEK293 cells were then seeded. […]
The olfactory receptor expressed in HEK293 cells interact with endogenous cellular Gas to activate adenylate cyclase and thereby increases the intracellular cAMP level. […] The luciferase activity was measured from 2.5 to 4 hours after stimulation with an odorant or a test substance with a Dual-Glo™ luciferase assay system (Promega), following user's manual thereof. The value fLuc/hRluc was calculated by dividing the light emission value derived from firefly luciferase by the light emission value derived from Renilla luciferase. […]

[4] = Sensory examination: PEA detection threshold value before and after nasal administration; format: in vivo; details: 10 mM in saline, nasal spray, human examinees, one minute after spraying
Procedure: The action of 1-arginine, which is an OR2W1 selective ligand, on olfaction was evaluated by sensory examination. Three samples, saline (Otsuka Pharmaceutical Co., Ltd.), saline aqueous solution containing 10 mM 1-arginine, and saline aqueous solution containing 10 mM 1-histidine, were prepared and filled into nasal sprays (KT110-102, AS ONE Corporation). […] PEA aqueous solutions with 11 different concentrations from 0.001 to 100 WA were prepared as test solutions, and 3 mL of each of the solutions was respectively added to 20-mL glass vials (Maruemu Corporation).
The experiment was blinded to both an examiner and an examinee. The examiner set the spray spout in the nasal cavity of the examinee as deep as possible and sprayed once. The amount of liquid ejected thereby was about 100 to 200 μL. […] The concentration that gave a correct answer three consecutive times after answering an incorrect answer was determined as the detection threshold value. […] Before and after the nasal administration of a sample, detection threshold values of an examinee to PEA were measured. The rate of change in the threshold value was determined by calculating (threshold value concentration before sample nasal administration)/(threshold value concentration after sample nasal administration).

| SMILES | response of OR2W1 expressing cells [1] | odor intensity of HCA used together with test substance [2] | odor intensity of PEA used together with test substance [2] | responses of 427 olfactory receptors [3] | PEA detection threshold value after nasal administration [4] |
| --- | --- | --- | --- | --- | --- |
| N=C(N)NCCC[C@H](N)C(=O)O [1-arginine, L-Arginine] | responded to 1-arginine concentration dependently | enhanced in statistically siggificant manner | enhanced in statistically siggificant manner | no olfactory receptors other than OR2W1 responded | decreased in statistically significant manner |
| N[C@@H](Cc1c[nH]cn1)C(=O)O [1-histidine, L-Histidine] | did not respond | the effect of enhancing the odor intensity was not observed | the effect of enhancing the odor intensity was not observed | did not respond | not observed |
| CCCCCCC(C=O)=Cc1ccccc1 [HCA, 2-(phenylmethylidene)octanal] | did not respond |  |  |  |  |
| OCCc1ccccc1 [PEA, 2-phenylethanol] | responded |  |  |  |  |
